Data published in patent publication US20260028365A1 (BIOGEN MA INC., priority 2022, published 2026).
Read-outs that look alike come from different tables or passages of the source.

What was measured:
[1] = molecular target: Tyk2 (Homo sapiens (Human), UniProt P29597); experiment: pSTAT4 Cell Assay (MSD, NK92 cells); type: cell-based
[2] = molecular target: JH2 domain of human Tyk2 (Homo sapiens (Human), UniProt P29597); experiment: JH2 Biochemical Assay (TR-FRET probe displacement); type: binding
[3] = JH2 domain of human Tyk2, TR-FRET probe displacement
[4] = TR-FRET probe displacement, JH2 domain of human Tyk2

Tyk2, sequence (P29597 whole entry, the tested form may be a part): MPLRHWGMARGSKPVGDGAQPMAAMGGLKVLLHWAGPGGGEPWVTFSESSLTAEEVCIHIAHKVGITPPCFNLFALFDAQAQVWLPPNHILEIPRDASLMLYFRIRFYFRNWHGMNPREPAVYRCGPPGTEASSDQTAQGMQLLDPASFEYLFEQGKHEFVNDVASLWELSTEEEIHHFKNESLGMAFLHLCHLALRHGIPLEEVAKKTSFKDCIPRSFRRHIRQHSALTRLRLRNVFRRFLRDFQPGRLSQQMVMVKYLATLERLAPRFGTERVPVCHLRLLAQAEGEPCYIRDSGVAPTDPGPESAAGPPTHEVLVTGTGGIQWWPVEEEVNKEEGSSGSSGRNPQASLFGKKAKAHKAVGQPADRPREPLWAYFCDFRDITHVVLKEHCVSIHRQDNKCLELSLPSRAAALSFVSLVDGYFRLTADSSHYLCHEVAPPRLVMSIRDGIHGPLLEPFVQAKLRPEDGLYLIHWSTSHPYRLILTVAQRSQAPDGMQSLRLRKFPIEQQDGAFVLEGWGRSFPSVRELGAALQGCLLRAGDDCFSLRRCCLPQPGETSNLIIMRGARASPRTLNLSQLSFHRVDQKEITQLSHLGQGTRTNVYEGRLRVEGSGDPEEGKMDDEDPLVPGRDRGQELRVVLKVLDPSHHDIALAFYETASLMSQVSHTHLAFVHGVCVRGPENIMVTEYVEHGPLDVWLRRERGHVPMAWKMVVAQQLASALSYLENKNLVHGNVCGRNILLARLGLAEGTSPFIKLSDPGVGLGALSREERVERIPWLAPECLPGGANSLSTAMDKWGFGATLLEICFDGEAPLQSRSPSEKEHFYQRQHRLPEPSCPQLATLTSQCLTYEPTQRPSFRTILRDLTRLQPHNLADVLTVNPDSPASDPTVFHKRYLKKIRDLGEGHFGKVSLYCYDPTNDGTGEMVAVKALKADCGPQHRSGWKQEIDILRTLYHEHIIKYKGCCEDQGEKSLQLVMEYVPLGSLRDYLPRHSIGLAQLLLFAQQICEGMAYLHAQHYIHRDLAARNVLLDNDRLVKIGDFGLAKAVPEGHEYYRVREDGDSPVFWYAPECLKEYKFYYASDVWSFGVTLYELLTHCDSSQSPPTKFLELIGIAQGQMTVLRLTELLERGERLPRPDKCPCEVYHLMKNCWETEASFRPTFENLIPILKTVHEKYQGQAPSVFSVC
JH2 domain of human Tyk2, sequence (P29597 575-876): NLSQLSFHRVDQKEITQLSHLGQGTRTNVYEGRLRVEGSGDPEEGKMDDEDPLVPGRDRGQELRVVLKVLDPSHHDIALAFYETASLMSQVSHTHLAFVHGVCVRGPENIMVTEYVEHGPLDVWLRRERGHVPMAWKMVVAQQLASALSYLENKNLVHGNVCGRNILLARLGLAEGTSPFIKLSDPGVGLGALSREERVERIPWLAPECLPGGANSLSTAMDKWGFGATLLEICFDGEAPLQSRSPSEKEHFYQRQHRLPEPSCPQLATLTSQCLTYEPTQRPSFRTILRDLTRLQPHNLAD

Row | SMILES | IC50 ([1]; MSD) | IC50 [2, 3] | IC50 [2, 4] | IC50 [1] | IC50 ([2]; TR-FRET probe displacement, JH2 domain)
1 | CC(=O)Nc1cc(Nc2cc(C)nc(C(C)(F)F)n2)c(OCC2(C)CCOC2)cn1 (centres unmarked) [Example 431, N-(4-((2-(1,1-difluoroethyl)-6-methylpyrimidin-4-yl)amino)-5-((3-methyltetrahydrofuran-3-yl)methoxy)pyridin-2-yl)acetamide] | 0.1 to 1 µM | ≤ 0.01 µM |  |  | 
2 | COc1cnc(NC(C)=O)cc1Nc1cc(-c2cncc(C)c2)nc(C(C)(F)F)n1 [Example 389, N-(4-((2-(1,1-difluoroethyl)-6-(5-methylpyridin-3-yl)pyrimidin-4-yl)amino)-5-methoxypyridin-2-yl)acetamide] | 0.01 to 0.1 µM | ≤ 0.01 µM |  |  | 
3 | CC(=O)Nc1cc(Nc2cc(C)nc(C(C)(F)F)n2)c(OCc2nc(C)co2)cn1 [Example 325, N-(4-((2-(1,1-difluoroethyl)-6-methylpyrimidin-4-yl)amino)-5-((4-methyloxazol-2-yl)methoxy)pyridin-2-yl)acetamide] | 0.01 to 0.1 µM |  | ≤ 0.01 µM |  | 
4 | CC(=O)Nc1cc(Nc2ccnc(C(C)(F)F)n2)c(-c2cc(C)c(C#N)cn2)cn1 [Example 701, N-(5-cyanO4′-((2-(1,1-difluoroethyl)pyrimidin-4-yl)amino)-4-methyl-[2,3′-bipyridin]-6′-yl)acetamide] | ≤ 0.01 µM | ≤ 0.01 µM |  |  | 
5 | CC(=O)Nc1cc(Nc2ccnc(C(C)(F)F)c2)c(-c2ncc(F)cn2)cn1 [Example 187, N-(4-((2-(1,1-difluoroethyl)pyridin-4-yl)amino)-5-(5-fluoropyrimidin-2-yl)pyridin-2-yl)acetamide] | ≥ 1 µM |  | 0.01 to 0.1 µM |  | 
6 | CC(=O)Nc1cc(Nc2cc(C)nc(C(C)(F)F)n2)c(OCc2cnn(C3CCC3)c2)cn1 [Example 354, N-(5-((1-cyclobutyl-1H-pyrazol-4-yl)methoxy)-4-((2-(1,1-difluoroethyl)-6-methylpyrimidin-4-yl)amino)pyridin-2-yl)acetamide] | 0.1 to 1 µM |  | ≤ 0.01 µM |  | 
7 | CC(=O)Nc1cc(Nc2cc(C)nc(C(C)(F)F)n2)c(-c2cc3n(n2)CCCN3C)cn1 [Example 240, N-(4-((2-(1,1-difluoroethyl)-6-methylpyrimidin-4-yl)amino)-5-(4-methyl-4,5,6,7-tetrahydropyrazolo[1,5-a]pyrimidin-2-yl)pyridin-2-yl)acetamide] | ≤ 0.01 µM |  | ≤ 0.01 µM |  | 
8 | CC(=O)Nc1cc(Nc2ccnc(C(C)(F)F)n2)c(-c2ncc(Cl)cn2)cn1 [Example 697, N-(5-(5-chloropyrimidin-2-yl)-4-((2-(1,1-difluoroethyl)pyrimidin-4-yl)amino)pyridin-2-yl)acetamide] | 0.01 to 0.1 µM | ≤ 0.01 µM |  |  | 
9 | CC(=O)Nc1cc(Nc2cc(C)nc(C(C)(F)F)n2)c(OCCc2cccnc2F)cn1 [Example 328, N-(4-((2-(1,1-difluoroethyl)-6-methylpyrimidin-4-yl)amino)-5-(2-(2-fluoropyridin-3-yl)ethoxy)pyridin-2-yl)acetamide] | ≤ 0.01 µM |  | ≤ 0.01 µM |  | 
10 | COc1cnc(NC(C)=O)cc1Nc1cc(C)nc(C2CCOC2)n1 (centres unmarked) [Example 451, N-(5-methoxy-4-((6-methyl-2-(tetrahydrofuran-3-yl)pyrimidin-4-yl)amino)pyridin-2-yl)acetamide] | ≥ 1 µM | 0.01 to 0.1 µM |  |  | 
11 | COCCOc1cnc(NC(C)=O)cc1Nc1cc(C)nc(C(F)CF)n1 (centres unmarked) [Example 79, N-(4-((2-(1,2-difluoroethyl)-6-methylpyrimidin-4-yl)amino)-5-(2-methoxyethoxy)pyridin-2-yl)acetamide] | 0.01 to 0.1 µM |  | ≤ 0.01 µM |  | 
12 | COCc1csc(-c2cnc(NC(C)=O)cc2Nc2cc(C)nc(C(C)(F)F)n2)n1 [Example 233, N-(4-((2-(1,1-difluoroethyl)-6-methylpyrimidin-4-yl)amino)-5-(4-(methoxymethyl)thiazol-2-yl)pyridin-2-yl)acetamide] | ≤ 0.01 µM |  | ≤ 0.01 µM |  | 
13 | COc1cccc(-c2cnc(NC(C)=O)cc2Nc2cc(C)nc(C(C)(F)F)n2)n1 [Example 635, N-(4′-((2-(1,1-difluoroethyl)-6-methylpyrimidin-4-yl)amino)-6-methoxy-[2,3′-bipyridin]-6′-yl)acetamide] | ≤ 0.01 µM | ≤ 0.01 µM |  |  | 
14 | CCOc1cnc(NC(C)=O)cc1Nc1cc(OC2CCC2)nc(C(C)(F)F)n1 [Example 462, N-(4-((6-cyclobutoxy-2-(1,1-difluoroethyl)pyrimidin-4-yl)amino)-5-ethoxypyridin-2-yl)acetamide] | ≤ 0.01 µM | ≤ 0.01 µM |  |  | 
15 | CC(=O)Nc1cc(Nc2cc(C)nc(C34COC(C3)C4)n2)c(-c2ccc3c(n2)OCC(C)(C)O3)cn1 [Example 563, N-(4-((2-(2-oxabicyclo[2.1.1]hexan-4-yl)-6-methylpyrimidin-4-yl)amino)-5-(2,2-dimethyl-2,3-dihydrO[1,4]dioxino[2,3-b]pyridin-6-yl)pyridin-2-yl)acetamide] | 0.01 to 0.1 µM | ≤ 0.01 µM |  |  | 
16 | COc1cnc(-c2cnc(NC(C)=O)cc2Nc2ccnc(C(C)(F)F)n2)cn1 [Example 828, N-(4-((2-(1,1-difluoroethyl)pyrimidin-4-yl)amino)-5-(5-methoxypyrazin-2-yl)pyridin-2-yl)acetamide] |  |  |  | 0.01 to 0.1 µM | ≤ 0.01 µM

Row | SMILES | IC50 ([1]; MSD) | IC50 [2, 3] | IC50 [2, 4] | IC50 [1] | IC50 ([2]; TR-FRET probe displacement, JH2 domain)
17 | CC(=O)Nc1cc(Nc2cc(C)nc(C(C)(F)F)n2)c([C@H]2CCCO2)cn1 (single isomer, unassigned) [Example 278, (R)-N-(4-((2-(1,1-difluoroethyl)-6-methylpyrimidin-4-yl)amino)-5-(tetrahydrofuran-2-yl)pyridin-2-yl)acetamide or (S)—N-(4-((2-(1,1-difluoroethyl)-6-methylpyrimidin-4-yl)amino)-5-(tetrahydrofuran-2-yl)pyridin-2-yl)acetamide] | ≥ 1 µM |  | 0.01 to 0.1 µM |  | 
18 | CC(=O)Nc1cc(Nc2cc(C)nc(C3(F)CC3)n2)c(-c2ccn(C)n2)cn1 [Example 558, N-(4-((2-(1-fluorocyclopropyl)-6-methylpyrimidin-4-yl)amino)-5-(1-methyl-1H-pyrazol-3-yl)pyridin-2-yl)acetamide] | ≤ 0.01 µM | ≤ 0.01 µM |  |  | 
19 | COCCOc1cnc(NC(C)=O)cc1Nc1cncc(C(F)CF)n1 (centres unmarked) [Example 89, N-(4-((6-(1,2-difluoroethyl)pyrazin-2-yl)amino)-5-(2-methoxyethoxy)pyridin-2-yl)acetamide] | 0.01 to 0.1 µM |  | 0.01 to 0.1 µM |  | 
20 | CC(=O)Nc1cc(Nc2cc(C)nc(C(C)(F)F)n2)c(OC[C@H]2C[C@H]2CF)cn1 (racemic) [Example 428, Cis-rac-N-(4-((2-(1,1-difluoroethyl)-6-methylpyrimidin-4-yl)amino)-5-((2-(fluoromethyl)cyclopropyl)methoxy)pyridin-2-yl)acetamide] | 0.01 to 0.1 µM | ≤ 0.01 µM |  |  | 
21 | CC(=O)Nc1cc(Nc2cc(C)nc(C(C)(F)F)n2)c(OCCCC2CCCO2)cn1 (centres unmarked) [Example 434, N-(4-((2-(1,1-difluoroethyl)-6-methylpyrimidin-4-yl)amino)-5-(3-(tetrahydrofuran-2-yl)propoxy)pyridin-2-yl)acetamide] | 0.01 to 0.1 µM | ≤ 0.01 µM |  |  | 
22 | CC(=O)Nc1cc(Nc2cc(C)nc(C(C)(F)F)n2)c(-c2ncc(C(F)F)cn2)cn1 [Example 670, N-(4-((2-(1,1-difluoroethyl)-6-methylpyrimidin-4-yl)amino)-5-(5-(difluoromethyl)pyrimidin-2-yl)pyridin-2-yl)acetamide] | 0.01 to 0.1 µM | ≤ 0.01 µM |  |  | 
23 | CC(=O)Nc1cc(Nc2cc(C)nc(C(C)(F)F)n2)c(OCc2noc(C)n2)cn1 [Example 498, N-(4-((2-(1,1-difluoroethyl)-6-methylpyrimidin-4-yl)amino)-5-((5-methyl-1,2,4-oxadiazol-3-yl)methoxy)pyridin-2-yl)acetamide] | 0.1 to 1 µM | ≤ 0.01 µM |  |  | 
24 | CCc1cc(Nc2cc(NC(C)=O)ncc2OCCOC(F)F)nc(C(C)(F)F)n1 [Example 68, N-(4-((2-(1,1-difluoroethyl)-6-ethylpyrimidin-4-yl)amino)-5-(2-(difluoromethoxy)ethoxy)pyridin-2-yl)acetamide] | ≤ 0.01 µM |  | ≤ 0.01 µM |  | 
25 | CC(=O)Nc1cc(Nc2ccnc(C(C)(F)F)n2)c(OC2CC2)cn1 [Example 38, N-(5-cyclopropoxy-4-((2-(1,1-difluoroethyl)pyrimidin-4-yl)amino)pyridin-2-yl)acetamide] | 0.1 to 1 µM |  | ≤ 0.01 µM |  | 
26 | CC(=O)Nc1cc(Nc2cc(C)nc(C(C)(F)F)n2)c(OCc2ncccc2C)cn1 [Example 471, N-(4-((2-(1,1-difluoroethyl)-6-methylpyrimidin-4-yl)amino)-5-((3-methylpyridin-2-yl)methoxy)pyridin-2-yl)acetamide] | 0.1 to 1 µM | 0.01 to 0.1 µM |  |  | 
27 | CC(=O)Nc1cc(Nc2cc(OC3CC3)nc(C(C)(F)F)n2)c(OCc2ccccc2)cn1 [Example 487, N-(5-(benzyloxy)-4-((6-cyclopropoxy-2-(1,1-difluoroethyl)pyrimidin-4-yl)amino)pyridin-2-yl)acetamide] | ≤ 0.01 µM | ≤ 0.01 µM |  |  | 
28 | CC(=O)Nc1cc(Nc2cc(C)nc(C(C)(F)F)n2)c(OCC2CC(F)(F)C2)cn1 [Example 465, N-(5-((3,3-difluorocyclobutyl)methoxy)-4-((2-(1,1-difluoroethyl)-6-methylpyrimidin-4-yl)amino)pyridin-2-yl)acetamide] | 0.01 to 0.1 µM | ≤ 0.01 µM |  |  | 
29 | CC(=O)Nc1cc(Nc2cc(C)nc(C(C)(F)F)n2)c(-c2ccn(C(C)C)n2)cn1 [Example 603, N-(4-((2-(1,1-difluoroethyl)-6-methylpyrimidin-4-yl)amino)-5-(1-isopropyl-1H-pyrazol-3-yl)pyridin-2-yl)acetamide] | ≤ 0.01 µM | ≤ 0.01 µM |  |  | 
30 | CC(=O)Nc1cc(Nc2cc(C)nc(C(C)(C)F)n2)c(-c2cc3n(n2)CCOC3)cn1 [Example 530, N-(5-(6,7-dihydrO4H-pyrazolo[5,1-c][1,4]oxazin-2-yl)-4-((2-(2-fluoropropan-2-yl)-6-methylpyrimidin-4-yl)amino)pyridin-2-yl)acetamide] | ≤ 0.01 µM | ≤ 0.01 µM |  |  | 
31 | CCOc1cnc(NC(C)=O)cc1Nc1cc(-c2cccnc2)nc(C(C)(F)F)n1 [Example 96, N-(4-((2-(1,1-difluoroethyl)-6-(pyridin-3-yl)pyrimidin-4-yl)amino)-5-ethoxypyridin-2-yl)acetamide] | 0.01 to 0.1 µM |  | ≤ 0.01 µM |  | 
